Reference: PubChem BioAssay AID1845201 (Molecular Pharmacology Branch, DTP, NCI, 2023)
Several values for one entry are separate records, joined by “and”; a condition that tells them apart may be missing. Equal values may be shown once.

Test system: COR L88 complex tumor spheroid viability
Assay: Anticancer human tumor COR L88 cell line growth inhibition;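 also: compound exposure lasted 7 days before viability readout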;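 as to viability, T/C: percent of DMSO vehicle-treated spheroids = 100%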
Settings: for viability, T/C: stronger effect = lower value
How it was run: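 Complex tumor spheroids combined malignant cells with endothelial cells and mesenchymal stem cells. DNA-damaging drugs and DNA repair inhibitors were tested alone and in combination, at half-log dilutions down from clinical Cmax (top 10 microM if Cmax unknown), 0.25% DMSO final.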

[1] = curve of first compound, second compound 30 pM
[2] = curve of first compound, second compound 94.9 pM
[3] = curve of first compound, second compound 0.0003 µM
[4] = curve of first compound, second compound 0.000949 µM
[5] = curve of first compound, second compound 0.003 µM

## COc1ccc([C@@H](O)c2cc(-c3ncnc4cc(N5CCOCC5)ccc34)c(F)cc2Cl)nn1
Compound 0.0316 µM
  viability, T/C: 108% and 105% and 101%
Compound 0.1 µM
  viability, T/C: 98.8% and 102% and 98.1%
Compound 0.316 µM
  viability, T/C: 103% and 93.9% and 104%
Compound 1 µM
  viability, T/C: 76.1% and 83% and 81.6%
Compound 3.16 µM
  viability, T/C: 56% and 64.4% and 54.8%
Compound 10 µM
  viability, T/C: 33.7% and 39% and 36.1%
Curve of compound
  IC50: 4010 nM and 6100 nM

## Cn1ncnc1[C@H]1c2n[nH]c(=O)c3cc(F)cc(c23)N[C@@H]1c1ccc(F)cc1
Compound 0.00949 µM
  viability, T/C: 88.5% and 92.9% and 87.1%
Compound 0.03 µM
  viability, T/C: 79.6% and 66.2% and 79.5%
Compound 0.0949 µM
  viability, T/C: 66.9% and 62.7% and 56%
Compound 0.3 µM
  viability, T/C: 59.6% and 54.9% and 49.2%
Compound 0.949 µM
  viability, T/C: 43.3% and 45% and 39.5%
Compound 3 µM
  viability, T/C: 43.6% and 37.6% and 40.6%
Curve of compound
  IC50: 665 nM and 353 nM and 293 nM

## CC(C)n1c(=O)n(C)c2cnc3cc(F)c(-c4ccc(OCCCN5CCCCC5)nc4)cc3c21
Compound 0.0316 µM
  viability, T/C: 103% and 92.5% and 102%
Compound 0.1 µM
  viability, T/C: 113% and 103% (2×)
Compound 0.316 µM
  viability, T/C: 110% and 99.5% and 98.2%
Compound 1 µM
  viability, T/C: 94.8% and 88.6% and 99%
Compound 3.16 µM
  viability, T/C: 95.3% and 89.8% and 87.5%
Compound 10 µM
  viability, T/C: 56.5% and 61% and 56.6%
Curve of compound
  IC50: > 10000 nM

## COc1cc(C)[nH]c(=O)c1CN1CCc2c(Cl)cc(C(OC)C3COC3)c(Cl)c2C1=O (stereo unspecified) + COc1cc2c(cc1O)CCNC21CSC2c3c(OC(C)=O)c(C)c4c(c3C(COC1=O)N1C(O)C3Cc5cc(C)c(OC)c(O)c5C(C21)N3C)OCO4
[1]
  IC50: > 10000 nM
[2]
  IC50: > 10000 nM
[3]
  IC50: < 31.6 nM
[4]
  IC50: < 31.6 nM
[5]
  IC50: < 31.6 nM
Second compound 30 pM, first compound 0.0316 µM
  viability, T/C: 109%
Second compound 30 pM, first compound 0.1 µM
  viability, T/C: 98.7%
Second compound 30 pM, first compound 0.316 µM
  viability, T/C: 96.8%
Second compound 30 pM, first compound 1 µM
  viability, T/C: 91.4%
Second compound 30 pM, first compound 3.16 µM
  viability, T/C: 86.7%
Second compound 30 pM, first compound 10 µM
  viability, T/C: 83.2%
Second compound 94.9 pM, first compound 0.0316 µM
  viability, T/C: 99.4%
Second compound 94.9 pM, first compound 0.1 µM
  viability, T/C: 84.2%
Second compound 94.9 pM, first compound 0.316 µM
  viability, T/C: 82.2%
Second compound 94.9 pM, first compound 1 µM
  viability, T/C: 86.2%
Second compound 94.9 pM, first compound 3.16 µM
  viability, T/C: 80.9%
Second compound 94.9 pM, first compound 10 µM
  viability, T/C: 80.9%
Second compound 0.0003 µM, first compound 0.0316 µM
  viability, T/C: 49.3%
Second compound 0.0003 µM, first compound 0.1 µM
  viability, T/C: 41.2%
Second compound 0.0003 µM, first compound 0.316 µM
  viability, T/C: 38%
Second compound 0.0003 µM, first compound 1 µM
  viability, T/C: 36.3%
Second compound 0.0003 µM, first compound 3.16 µM
  viability, T/C: 34.2%
Second compound 0.0003 µM, first compound 10 µM
  viability, T/C: 31.3%
Second compound 0.000949 µM, first compound 0.0316 µM
  viability, T/C: 39.6%
Second compound 0.000949 µM, first compound 0.1 µM
  viability, T/C: 47.4%
Second compound 0.000949 µM, first compound 0.316 µM
  viability, T/C: 44.6%
Second compound 0.000949 µM, first compound 1 µM
  viability, T/C: 37.7%
Second compound 0.000949 µM, first compound 3.16 µM
  viability, T/C: 34.1%
Second compound 0.000949 µM, first compound 10 µM
  viability, T/C: 18.3%
Second compound 0.003 µM, first compound 0.0316 µM
  viability, T/C: 1.16%
Second compound 0.003 µM, first compound 0.1 µM
  viability, T/C: 1.08%
Second compound 0.003 µM, first compound 0.316 µM
  viability, T/C: 0.9%
Second compound 0.003 µM, first compound 1 µM
  viability, T/C: 1.24%
Second compound 0.003 µM, first compound 3.16 µM
  viability, T/C: 1.05%
Second compound 0.003 µM, first compound 10 µM
  viability, T/C: 1.71%

## Cc1sc2c(c1C)C(c1ccc(Cl)cc1)=NC(CC(=O)Nc1ccc(O)cc1)c1nnc(C)n1-2 (stereo unspecified) + Cn1nnc2c(C(N)=O)ncn2c1=O
Curve of first compound, second compound 1 µM
  IC50: 499 nM
Curve of first compound, second compound 3.16 µM
  IC50: 624 nM
Curve of first compound, second compound 10 µM
  IC50: 610 nM
Curve of first compound, second compound 31.6 µM
  IC50: 785 nM
Curve of first compound, second compound 100 µM
  IC50: 880 nM
Second compound 1 µM, first compound 0.00949 µM
  viability, T/C: 86.5%
Second compound 1 µM, first compound 0.03 µM
  viability, T/C: 94%
Second compound 1 µM, first compound 0.0949 µM
  viability, T/C: 97.9%
Second compound 1 µM, first compound 0.3 µM
  viability, T/C: 63.2%
Second compound 1 µM, first compound 0.949 µM
  viability, T/C: 34.8%
Second compound 1 µM, first compound 3 µM
  viability, T/C: 22.4%
Second compound 3.16 µM, first compound 0.00949 µM
  viability, T/C: 98.8%
Second compound 3.16 µM, first compound 0.03 µM
  viability, T/C: 96.5%
Second compound 3.16 µM, first compound 0.0949 µM
  viability, T/C: 100%
Second compound 3.16 µM, first compound 0.3 µM
  viability, T/C: 70.6%
Second compound 3.16 µM, first compound 0.949 µM
  viability, T/C: 38.6%
Second compound 3.16 µM, first compound 3 µM
  viability, T/C: 21.5%
Second compound 10 µM, first compound 0.00949 µM
  viability, T/C: 88.1%
Second compound 10 µM, first compound 0.03 µM
  viability, T/C: 94.1%
Second compound 10 µM, first compound 0.0949 µM
  viability, T/C: 103%
Second compound 10 µM, first compound 0.3 µM
  viability, T/C: 64.7%
Second compound 10 µM, first compound 0.949 µM
  viability, T/C: 41.2%
Second compound 10 µM, first compound 3 µM
  viability, T/C: 18.8%
Second compound 31.6 µM, first compound 0.00949 µM
  viability, T/C: 89%
Second compound 31.6 µM, first compound 0.03 µM
  viability, T/C: 101%
Second compound 31.6 µM, first compound 0.0949 µM
  viability, T/C: 104%
Second compound 31.6 µM, first compound 0.3 µM
  viability, T/C: 87.7%
Second compound 31.6 µM, first compound 0.949 µM
  viability, T/C: 42.7%
Second compound 31.6 µM, first compound 3 µM
  viability, T/C: 23.8%
Second compound 100 µM, first compound 0.00949 µM
  viability, T/C: 78.4%
Second compound 100 µM, first compound 0.03 µM
  viability, T/C: 85.4%
Second compound 100 µM, first compound 0.0949 µM
  viability, T/C: 92.2%
Second compound 100 µM, first compound 0.3 µM
  viability, T/C: 88.1%
Second compound 100 µM, first compound 0.949 µM
  viability, T/C: 47.4%
Second compound 100 µM, first compound 3 µM
  viability, T/C: 28.2%

## Cc1sc2c(c1C)C(c1ccc(Cl)cc1)=NC(CC(=O)Nc1ccc(O)cc1)c1nnc(C)n1-2 (stereo unspecified) + COc1cc2c(cc1O)CCNC21CSC2c3c(OC(C)=O)c(C)c4c(c3C(COC1=O)N1C(O)C3Cc5cc(C)c(OC)c(O)c5C(C21)N3C)OCO4
[1]
  IC50: 455 nM
[2]
  IC50: 432 nM
[3]
  IC50: 464 nM
[4]
  IC50: 104 nM
[5]
  IC50: < 9.49 nM
Second compound 30 pM, first compound 0.00949 µM
  viability, T/C: 92.5%
Second compound 30 pM, first compound 0.03 µM
  viability, T/C: 90.9%
Second compound 30 pM, first compound 0.0949 µM
  viability, T/C: 101%
Second compound 30 pM, first compound 0.3 µM
  viability, T/C: 65.3%
Second compound 30 pM, first compound 0.949 µM
  viability, T/C: 23.6%
Second compound 30 pM, first compound 3 µM
  viability, T/C: 14.8%
Second compound 94.9 pM, first compound 0.00949 µM
  viability, T/C: 92.6%
Second compound 94.9 pM, first compound 0.03 µM
  viability, T/C: 96.5%
Second compound 94.9 pM, first compound 0.0949 µM
  viability, T/C: 94.2%
Second compound 94.9 pM, first compound 0.3 µM
  viability, T/C: 55.3%
Second compound 94.9 pM, first compound 0.949 µM
  viability, T/C: 33.5%
Second compound 94.9 pM, first compound 3 µM
  viability, T/C: 14.1%
Second compound 0.0003 µM, first compound 0.00949 µM
  viability, T/C: 76.1%
Second compound 0.0003 µM, first compound 0.03 µM
  viability, T/C: 118%
Second compound 0.0003 µM, first compound 0.0949 µM
  viability, T/C: 122%
Second compound 0.0003 µM, first compound 0.3 µM
  viability, T/C: 72.6%
Second compound 0.0003 µM, first compound 0.949 µM
  viability, T/C: 15.1%
Second compound 0.0003 µM, first compound 3 µM
  viability, T/C: 3.51%
Second compound 0.000949 µM, first compound 0.00949 µM
  viability, T/C: 87.4%
Second compound 0.000949 µM, first compound 0.03 µM
  viability, T/C: 84.6%
Second compound 0.000949 µM, first compound 0.0949 µM
  viability, T/C: 54%
Second compound 0.000949 µM, first compound 0.3 µM
  viability, T/C: 5.62%
Second compound 0.000949 µM, first compound 0.949 µM
  viability, T/C: 1.33%
Second compound 0.000949 µM, first compound 3 µM
  viability, T/C: 0.42%
Second compound 0.003 µM, first compound 0.00949 µM
  viability, T/C: 0.68%
Second compound 0.003 µM, first compound 0.03 µM
  viability, T/C: 0.7%
Second compound 0.003 µM, first compound 0.0949 µM
  viability, T/C: 0.6%
Second compound 0.003 µM, first compound 0.3 µM
  viability, T/C: 0.57%
Second compound 0.003 µM, first compound 0.949 µM
  viability, T/C: 0.69%
Second compound 0.003 µM, first compound 3 µM
  viability, T/C: 1.49%
